# Measurements published in ChEMBL document CHEMBL4376820, “Homodimeric Tobramycin Adjuvant Repurposes Novobiocin as an Effective Antibacterial Agent against Gram-Negative Bacteria” (J Med Chem, 2019).
# Activity calls are given as the source filed them. No cut-off for these calls is given here. Positions of bridges follow the written chain, without caps; N, C: chain ends. Non-standard residues stand in square brackets, D forms with d. Residues, ends and D or L forms follow the SMILES beside them. Dab = NCC[C@H](N)C(=O)O
# Legend:
# [1] = system: Pseudomonas aeruginosa; experiment: Induction of outer membrane permeabilization in Pseudomonas aeruginosa PAO1 assessed as increase in accumulation of NPN by measuring fluorescence intensity at 8 ug/ml measured immediately by NPN dye uptake assay; type: organism-based
# [2] = system: Klebsiella pneumoniae; experiment: Potentiation of novobiocin-induced antibacterial activity against colistin-resistant Klebsiella pneumoniae 113254 clinical isolate assessed as novobiocin MIC at <= 7.1 uM incubated for 18 hrs by CLSI protocol based assay (reference value: 256 ug/ml); type: functional; conditions: Klebsiella pneumoniae, 113254, 18 h
# [3] = system: Pseudomonas aeruginosa; experiment: Potentiation of novobiocin-induced antibacterial activity against colistin and carbapenem-resistant Pseudomonas aeruginosa 101243 clinical isolate assessed as novobiocin MIC at <= 7.1 uM incubated for 18 hrs by CLSI protocol based assay (reference value: 128 ug/ml); type: functional; conditions: Pseudomonas aeruginosa, 101243, 18 h
# [4] = system: Escherichia coli; experiment: Potentiation of novobiocin-induced antibacterial activity against colistin-resistant Escherichia coli 94393 clinical isolate harboring mcr-1 gene assessed as novobiocin MIC at <= 7.1 uM incubated for 18 hrs by CLSI protocol based assay (reference value: 128 ug/ml); type: functional; conditions: Escherichia coli, 94393, 18 h
# [5] = system: Pseudomonas aeruginosa; experiment: Potentiation of novobiocin-induced antibacterial activity against wild type Pseudomonas aeruginosa PAO1 assessed as novobiocin MIC at <= 7.1 uM incubated for 18 hrs by CLSI protocol based assay (reference value: 512 ug/ml); type: functional; conditions: PAO1, 18 h
# [6] = system: Acinetobacter baumannii; experiment: Potentiation of novobiocin-induced antibacterial activity against colistin-resistant Acinetobacter baumannii 92247 clinical isolate assessed as novobiocin MIC at <= 7.1 uM incubated for 18 hrs by CLSI protocol based assay (reference value: 4 ug/ml); type: functional; conditions: Acinetobacter baumannii, 92247, 18 h
# [7] = system: Acinetobacter baumannii; experiment: Potentiation of novobiocin-induced antibacterial activity against novobiocin and colistin resistant Acinetobacter baumannii ATCC 17978 mutant generated from seven serial passages by checkerboard assay; type: functional, organism-based
# [8] = system: Escherichia coli; experiment: Potentiation of novobiocin-induced antibacterial activity against colistin-resistant Escherichia coli 94474 clinical isolate harboring mcr-1 gene assessed as novobiocin MIC at <= 7.1 uM incubated for 18 hrs by CLSI protocol based assay (reference value: 256 ug/ml); type: functional; conditions: Escherichia coli, 94474, 18 h
# [9] = Toxicity in Galleria mellonella larvae MDR Acinetobacter baumannii isolate assessed as larvae protection at 25 mg/kg in combination with novobiocin measured after 24 to 96 hrs relative to control; type: ADME, organism-based; conditions: in vivo
# [10] = system: Enterobacter cloacae; experiment: Potentiation of novobiocin-induced antibacterial activity against colistin-resistant Enterobacter cloacae 118568 clinical solate assessed as novobiocin MIC at <= 7.1 uM incubated for 18 hrs by CLSI protocol based assay (reference value: 1024 ug/ml); type: functional; conditions: Enterobacter cloacae, 118568, 18 h
# [11] = system: Pseudomonas aeruginosa; experiment: Potentiation of novobiocin-induced antibacterial activity against carbapenem and colistin-resistant Pseudomonas aeruginosa 91433 clinical isolate assessed as novobiocin MIC at <= 7.1 uM incubated for 18 hrs by CLSI protocol based assay (reference value: 16 ug/ml); type: functional; conditions: Pseudomonas aeruginosa, 91433, 18 h
# [12] = system: Pseudomonas aeruginosa; experiment: Potentiation of novobiocin-induced antibacterial activity against carbapenem and colistin-resistant Pseudomonas aeruginosa 114228 clinical isolate assessed as novobiocin MIC at <= 7.1 uM incubated for 18 hrs by CLSI protocol based assay (reference value: 512 ug/ml); type: functional; conditions: Pseudomonas aeruginosa, 114228, 18 h
smiles,measurement,setting,value
CC(C)C[C@@H]1NC(=O)[C@@H](Cc2ccccc2)NC(=O)[C@H](CCN)NC(=O)[C@@H](NC(=O)[C@H](CCN)NC(=O)[C@@H](N)[C@@H](C)O)CCNC(=O)[C@H]([C@@H](C)O)NC(=O)[C@H](CCN)NC(=O)[C@H](CCN)NC1=O [POLYMYXIN B NONAPEPTIDE] (H-T[Dab][Dab][Dab][dF]L[Dab][Dab]T; lactam 3-C),Activity,[1],Active
same,MIC,[2],64 µg/mL
same,MIC,[3],8 µg/mL
same,MIC,[4],4 µg/mL
same,MIC,[5],4 µg/mL
same,MIC,[6],1 µg/mL
same,Activity,[7],inactive
same,MIC,[8],32 µg/mL
same,Activity,[9],35%
same,MIC,[10],512 µg/mL
same,MIC,[11],4 µg/mL
same,MIC,[12],128 µg/mL
